From patent US7705038B2, “Control of parasites in animals by the use of parasiticidal 2-phenyl-3-(1H-pyrrol-2-yl)acrylonitrile derivatives” (Intervet, Inc., priority 2004, dated 2010) come the findings set out here.

For assay [1], the system named is cat fleas (Ctenocephalides felis). The assay is described as follows: Contact activity against cat fleas (LC50, % kill). The settings on record: for % Kill: percent of a sample of cat fleas killed at a concentration of 1.26 μg/cm^2; for pest or weed control at 1.26 µg/cm2, 1.26 µg/cm2: Ctenocephalides felis, read-out: % Kill. The source says: (§1) Exemplified compounds of Formula 1 are listed by Tables 1a and 1b, above. The activity of these compounds against Haemonchus contortus and cat fleas (Ctenocephalides felis) is summarized by Table 7, below.

Another assay relates to Haemonchus contortus. The assay is described as follows: Activity against Haemonchus contortus (LD99). The note with it: dose required to kill 99% of the sample of Haemonchus contortus.
Source text: as §1
The LD99 value is the dose, expressed as μg/ml, that was required to kill 99% of the sample of Haemonchus contortus.

Take `N#C/C(=C\c1ccc[nH]1)c1ccccc1Br` [Compound 38]: the “% Kill” value in assay [1] is listed as 30%. This compound also showed an LD99 with Haemonchus contortus of 3.25 µg/mL.
For `N#C/C(=C\c1ccc[nH]1)c1cccc(Br)c1` [Compound 39] the same measures were 24% and 0.938 µg/mL.
As for `N#C/C(=C\c1ccc[nH]1)c1ccc([N+](=O)[O-])cc1` [Compound 40], the “% Kill” value in assay [1] amounted to 6%. For the same compound, the LD99 result in the assay with Haemonchus contortus was “— (the symbol ‘—’ indicates tested but inactive up to 15 μg/ml)”.
As for `N#C/C(=C\c1ccc[nH]1)c1ccc(F)c(F)c1` [Compound 47], the “% Kill” value in assay [1] is 17%. For the same compound, the LD99 with Haemonchus contortus was 0.75 µg/mL.
The like results for `N#C/C(=C\c1ccc[nH]1)c1ccc(Cl)cc1F` [Compound 48] were, in that order, 5% and 2.5 µg/mL.
For `CCOCn1cccc1/C=C(\C#N)c1ccccc1F` [Compound 55] the same measures were 10% and “— (the symbol ‘—’ indicates tested but inactive up to 15 μg/ml)”.
The like results for `CCOCn1cccc1/C=C(\C#N)c1ccc(F)cc1F` [Compound 60] were, in that order, 19% and “— (the symbol ‘—’ indicates tested but inactive up to 15 μg/ml)”.
For the compound `CCOCn1cccc1/C=C(\C#N)c1ccc(C)cc1` [Compound 64], the “% Kill” value in assay [1] is given as 20%. The LD99 entry in the assay with Haemonchus contortus was “— (the symbol ‘—’ indicates tested but inactive up to 15 μg/ml)”.
In general, EC99 refers to the point of the concentration-response curve where the effect stands at 99%. The low end stands for an effect from little substance, the high end for a need for much substance. Take `N#C/C(=C\c1ccc[nH]1)c1ccc2ccccc2c1` [Compound 66, 2-(2-naphthyl)-3-(1H-pyrrol-2-yl)acrylonitrile]: the pest or weed control at 1.26 µg/cm2, 1.26 µg/cm2 in assay [1] turned out to be 28%. In addition, the EC99 in the assay on Haemonchus contortus turned out to be 2.5 µg/mL.
Regarding `N#C/C(=C\c1ccc[nH]1)c1c(F)cccc1Cl` [Compound 67], in assay [1], the “% Kill” value is on record as 7%. Besides, the LD99 entry in the assay with Haemonchus contortus is “— (the symbol ‘—’ indicates tested but inactive up to 15 μg/ml)”.
For `N#C/C(=C\c1ccc[nH]1)c1cc(C(F)(F)F)cc(C(F)(F)F)c1` [Compound 68] the same measures were 27% and “— (the symbol ‘—’ indicates tested but inactive up to 15 μg/ml)”.
On to `N#C/C(=C\c1ccc[nH]1)c1ccc(F)cc1F` [Compound 69], for which the “% Kill” value in assay [1] is 5%. In addition, in the assay with Haemonchus contortus, the LD99 is 2.5 µg/mL.
In the case of `N#C/C(=C\c1ccc[nH]1)c1c(F)cccc1F` [Compound 70], the “% Kill” value in assay [1] came out at 17%. Moreover, the LD99 in the assay with Haemonchus contortus was found to be 7.5 µg/mL.
The like results for `N#C/C(=C\c1ccc[nH]1)c1cccc(Oc2ccccc2)c1` [Compound 71] were, in that order, 10% and 3.25 µg/mL.
Take `Cc1cccc(/C(C#N)=C/c2ccc[nH]2)c1` [Compound 72]: the “% Kill” value in assay [1] was 42%. In the assay with Haemonchus contortus, this compound came in with an LD99 of 1.25 µg/mL.
As for `N#C/C(=C\c1ccc[nH]1)c1ccc(F)c(Br)c1` [Compound 73], in assay [1], the “% Kill” value was determined as 7%. Besides, the LD99 in the assay on Haemonchus contortus was determined as 0.469 µg/mL.
Turning to `N#C/C(=C\c1ccc[nH]1)c1ccc(F)cc1Cl` [Compound 74], the “% Kill” value in assay [1] stood at 30%. In addition, the LD99 with Haemonchus contortus came to 3 µg/mL.
The like results for `CCc1ccc(/C(C#N)=C/c2ccc[nH]2)cc1` [Compound 75] were, in that order, 58% and 0.875 µg/mL.
As for `CCC(=O)n1cccc1/C=C(\C#N)c1ccc(Cl)cc1` [Compound 76, (Z)-2-(4-Chlorophenyl)-3-(1-propanoyl-1H-pyrrol-2-yl)acrylonitrile], in assay [1], the pest or weed control at 1.26 µg/cm2, 1.26 µg/cm2 was 12%. Also, it took 0.375 µg/mL to reach the 99% level in the assay on Haemonchus contortus (EC99).
Turning to `N#C/C(=C\c1cccn1Cc1ccccc1)c1ccc(Cl)cc1` [Compound 77], the “% Kill” value in assay [1] is recorded as 3%. In the assay with Haemonchus contortus, this compound yielded an LD99 of 14 µg/mL.
For `CCN(CC)C(=O)n1cccc1/C=C(\C#N)c1ccc(Cl)cc1` [Compound 78] the same measures were 8% and 3.5 µg/mL.
As for `CC(C)(C)OC(=O)n1cccc1/C=C(\C#N)c1ccc(Cl)cc1` [Compound 79], the “% Kill” value in assay [1] came out at 9%. The compound further returned an LD99 with Haemonchus contortus of 3.75 µg/mL.
The like results for `N#C/C(=C\c1ccc[nH]1)c1ccc(F)c(Cl)c1` [Compound 81] were, in that order, 5% and 1.25 µg/mL.
As for `N#C/C(=C\c1cccn1C(=O)c1ccccc1)c1ccc(Cl)cc1` [Compound 82], the “% Kill” value in assay [1] stood at 6%. The compound further registered an LD99 with Haemonchus contortus of 1.25 µg/mL.
The like results for `CN(C)C(=S)n1cccc1/C=C(\C#N)c1ccc(Cl)cc1` [Compound 84] were, in that order, 19% and 10 µg/mL.
For `COC(=O)n1cccc1/C=C(\C#N)c1ccc(Cl)cc1` [Compound 85] the same measures were 16% and 1.25 µg/mL.
The like results for `N#C/C(=C\c1cccn1C(=O)OCc1ccccc1)c1ccc(Cl)cc1` [Compound 86] were, in that order, 20% and 5.5 µg/mL.
`CC(C)c1ccc(/C(C#N)=C/c2ccc[nH]2)cc1` [Compound 87]: in assay [1], the “% Kill” value is 100%. Further, the LD99 result in the assay with Haemonchus contortus was “— (the symbol ‘—’ indicates tested but inactive up to 15 μg/ml)”.
The like results for `Cc1ccc(/C(C#N)=C/c2ccc[nH]2)c(C)c1` [Compound 88] were, in that order, 44% and “— (the symbol ‘—’ indicates tested but inactive up to 15 μg/ml)”.
